The values that follow are results of earlier work, collected in patent US5196437A, “Method for treating hepatic diseases and regenerating liver tissue using FK 506 and related compounds” (Fujisawa Pharmaceutical Company, Ltd., priority 1990, dated 1993).

For one data set, the system named is liver tissue. Particulars: literature; cited from earlier work.
For the next data set, the system named is liver. Particulars: literature (Starzl et al); cited from earlier work.

Turning to `Cn1cnc([N+](=O)[O-])c1Sc1ncnc2nc[nH]c12` [Azathioprine], the “regeneration of liver tissue after partial hepatectomy” value in the data set on liver tissue was “depress the regeneration of liver tissue”.

Turning to glucagon, in the data set on liver, the hepatotrophic properties entry is given as “does not have the hepatotrophic properties” and the “metabolic effect on the liver” value is reported as “powerful metabolic effect on the liver”. Regarding insulin, the hepatotrophic properties entry in the data set with liver is “exhibit hepatotrophic effects similar to those of the present compounds”.
